Source: patent US7214668B2, “Phosphonic acid based prodrugs of PMEA and its analogues” (Metabasis Therapeutics, Inc., priority 2002, dated 2007)
Values joined by “and” are separate entries in the source; they are usually repeats but may differ in a detail not shown here. Equal values may be shown once. Read-outs that look alike come from different tables or passages of the source.

Assays:
[1] = Experimental: Intact prodrug and the metabolite 9-[2-(phosophonomethoxy)ethyl]adenine (PMEA) and the respective mono-acids were measured in the plasma at 0 (predose), 0.33, 1, 3, 5, 8, and 12 hrs post dose by HPLC using fluorescence detection. The pharmacokinetic parameters were calculated based on noncompartmental analysis of the concentration-time profile.
[2] = Plasma and urine PMEA following oral Compound 4 and bis POM PMEA in rats; assay type: in vivo, rat; conditions: 30 mg/kg PMEA equivalents p.o.
Experimental: PMEA levels (0–12 h) were quantified in plasma by fluorescence HPLC following chloroacetaldehyde derivatization. PMEA levels in urine were quantified 48 hours after treatment.
Plasma drug levels: PMEA was determined in plasma by a modification of the procedure described in the literature (Shaw J P, Louie M S, Krishnamurthy V V, Arimilli M N, Jones R J, Bidgood A M, Lee W A, & Cundy K C, Drug Metabolism and Disposition, 25:362–366 (1997)). Plasma (100 μL) samples were extracted with 2 volumes of 0.1% TFA in acetonitrile. Following centrifugation to remove the precipitate, the supernatant was evaporated to dryness. The dried plasma was reconstituted with 200 μL of the derivatization cocktail consisting of 0.34% chloroacetaldehyde in 100 mM sodium acetate pH 4.5 and incubated at 95° C. for 40 min. The samples were evaporated to dryness and reconstituted with mobile phase for analysis by HPLC. The derivatized PMEA was analyzed by an HPLC system (Hewlett Packard 1090) consisting of a Beckman Ultrasphere ODS 4.6×150 mm (5 μm) column developed with a 20-min gradient of 0–30% acetonitrile in 20 mM potassium phosphate pH 6.2. Fluorescence was monitored at an excitation and emission wavelength of 240 and 420 nm, respectively. The column temperature was 40° C. and the flow rate was 1.5 mL/min. The derivatized PMEA was detected and quantified by comparison to an authentic standard prepared in plasma and eluted at approximately 6 minutes. The limit of quantitation of PMEA, was 0.25 μg/mL.
Urinary excretion studies: The percent excretion of PMEA in urine was assessed by a modification of a previously described procedure (Russell J W, Marrero D, Whiterock V J, & Klunk L J, J Chromatog, 572:321–326 (1991)). Aliquots (0.25–0.5 mL) of urine samples and spiked standards were incubated with an equal volume of 17% (v/v) of 50% chloroacetaldehyde in 100 mM sodium acetate pH 4.5 at 50° C. for 4 hrs. Following centrifugation, the supernatant was analyzed by the HPLC method described in the previous section.

[3] = system: freshly isolated rat hepatocytes; experiment: Hepatotoxicity parameters in isolated normal and dexamethasone-induced rat hepatocytes
Experimental: Normal fed Sprague-Dawley rats weighing 280–310 g were administered dexamethasone intraperitoneally at 50 mg/kg once a day for four days. Dexamethasone was purchased from Sigma (lot#119H1328) and formulated as a suspension in corn oil (Sigma lot#107H1649) at 50 mg/mL. On the fifth day rats were used for hepatocyte isolations. […] Effects on glutathione levels were assessed by the DTNB (Ellman's reagent) method and viability was determined by the trypan blue exclusion assay and hepatic enzyme leakage assays (LDH, AST). […] Both assays were adapted from the protocol insert for a test tube assay to a microtiter plate assay.

[4] = system: freshly isolated rat hepatocytes; conditions: 250 μM prodrug
Experimental: PMEA prodrugs were tested.
Hepatocytes were prepared from fed Sprague-Dawley rats (250–300 g) according to the procedure of Berry and Friend (Berry, M. N. Friend, D. S., J. Cell Biol. 43:506–520 (1969)) as modified by Groen (Groen, A. K. et al., Eur. J. Biochem 122:87–93 (1982)). Hepatocytes (60 mg/ml wet weight, >85% trypan blue viability) were incubated in 2 ml of krebs-bicarbonate buffer containing 20 mM glucose, and 1 mg/ml BSA for 4 hours in the presence of 250 μM PMEA prodrugs (from 25 mM stock solutions of prodrugs in methanol). At appropriate time points throughout the incubation (0, 1, 2, 4 hours), 400-μl aliquots of the cell suspension were taken and centrifuged through a silicon/mineral oil layer into 10% perchloric acid to extract intracellular nucleotides. The acidic cell extracts were neutralized with 0.3 volumes of 3M KOH/3M […] before evaluating PMEApp levels by ion exchange HPLC (Hewlett Packard 1050) using a Whatman Partisphere SAX (5 μm, 4.6×125 mm) column. Samples were loaded onto the column in 0.3M-ammonium phosphate buffer pH 3.5 and eluted from the column with a gradient to 0.8 M ammonium phosphate pH 3.5.

human liver microsomes = experiment: Kinetics of activation of Compound 4 to PMEA by human liver microsomes; assay type: in vitro ADME; conditions: 2 mg/mL human liver microsomes, 10 minutes, 37° C.
Experimental: The kinetics of activation of Compound 4 by the microsomal fraction of human liver were determined.
Human liver microsomes were purchased from In Vitro Technologies (IVT). Lot 1011 was prepared from a pool of 10 male donors with documented CYP3A4 activity (testosterone 6β-hydroxylation rate of 5.7 nmol/mg/min; IVT). […] Following a 2-minute preincubation at 37° C., reaction mixtures containing 100 mM KH2PO4, 2 mg/mL human liver microsomes, and 0, 30, 60, 100, 200 and 400 μM Compound 4 were started by addition of NADPH to 2 mM. The reaction was carried out for 10 minutes in an Eppendorf Thermomixer 5436 at 37° C., speed 6. […] Reactions were terminated by the addition of 1.5 volumes of methanol and extracts were pelleted at 14,000 rpm in an Eppendorf microfuge for 20 minutes. The supernatants (200 μl) were evaporated under vacuum and heat to dryness before resuspending in 80 μL buffer A (see below). Spiked standards of 9-[2-(phosophonomethoxy)ethyl]adenine, (PMEA, lot 980397, Metabasis Therapeutics) were prepared in the reaction mixture, and quenched and processed in an identical fashion. The ion-pairing buffer (Buffer A) consisted of 10 mM ammonium phosphate and 2.5 mM octyltriethylammonium phosphate, pH 5.5. After resuspension, samples were analyzed for PMEA by reverse phase HPLC. […]

[5] = Pharmacokinetics and oral bioavailability in beagle dog; assay type: in vivo
Experimental: Following an i.v. bolus and oral administration of 8 and 40 mg/kg (prodrug equivalent dose), respectively, of Compound 4 in PEG-400 to male beagle dogs (n=4), blood samples were collected at the following times: 5, 15, 30, 45 min and 1, 2, 4, 6, 8, 12, and 24 hrs post each dosing occasion. In addition, urine was collected over the following intervals: 0–12, 12–24, 24–48, and 48–72 hrs. Intact Compound 4 and PMEA were measured in the plasma and urine samples using an LC-MS/MS method. PK parameters were determined by non-compartmental analysis.

[6] = 1 mM Compound 4, normal rat hepatocytes
[7] = 40 mg/kg p.o. vs 8 mg/kg i.v., dog

Nc1ncnc2c1ncn2CCOCP1(=O)OCCC(c2cccc(Cl)c2)O1 (racemic) [Compound 4]
Plasma half-life of breakdown product 9-{2-[1-{(3-chlorophenyl)-1-propyl-3-hydroxy}phosphonomethoxy]ethyl}adenine ([1]; after 30 mg/kg PMEA equivalents p.o. of prodrug, rats): ~2.1 h
Intact prodrug in plasma ([1]; rat, in vivo): observed in plasma
AUC0-12h of PMEA in plasma ([2]; fasted rats): 3.5 µM·h
Fold lower plasma PMEA AUC0-12h than following bis POM PMEA ([2]; rats): 6 fold
Fold lower plasma PMEA Cmax than following bis POM PMEA ([2]; rats): 13 fold
Fold lower urinary levels of PMEA than following bis POM PMEA ([2]; rats): 5 fold
Urinary levels of PMEA ([2]; rats, urine 48 hours after treatment): 4.1 % dose
Viability or hepatic enzyme leakage following glutathione depletion ([3]; 250 μM and 1 mM, hepatocytes from dexamethasone pre-treated rats): no significant changes
Glutathione reduction, 250 μM ([3]; 250 μM, hepatocytes from dexamethasone pre-treated rats, 2-hour incubation): 50%
Glutathione levels, normal hepatocytes [3, 6]: no significant decrease
Viability or hepatic enzyme leakage, normal hepatocytes [3, 6]: no significant changes
Glutathione reduction, 1 mM ([3]; 1 mM, hepatocytes from dexamethasone pre-treated rats, 2-hour incubation): > 95%
Rat Hepatocytes, PMEApp formation, 250 μM, AUC 0–4 h [4]: 109.3 nmol·h/g
Km (human liver microsomes): 11 µM
Tolerability (signs of ill health or mortality) ([5]; 8 mg/kg i.v. bolus and 40 mg/kg oral in PEG-400, male beagle dogs): well tolerated
Mean residence time (MRTiv) ([5]; 8 mg/kg i.v. bolus, dog): 1.0 h
Plasma clearance ([5]; 8 mg/kg i.v. bolus, dog): 29.5 mL/min/kg
Volume of distribution (Vss) ([5]; 8 mg/kg i.v. bolus, dog): 1.70 L/kg
Mean terminal elimination half-life t1/2 of intact prodrug, i.v. ([5]; 8 mg/kg i.v. bolus, dog plasma): 0.8 h
i.v. dose excreted in the urine as PMEA ([5]; 8 mg/kg i.v., dog): 2%
i.v. dose excreted in the urine as intact Compound 4 ([5]; 8 mg/kg i.v., dog): approximately 30%
OBAV based on dose normalized oral-to-i.v. AUC ratios [5, 7]: 112%
OBAV based on urinary excretion of Compound 4 [5, 7]: 82%
Half-life of PMEA after oral dosing of the prodrug ([5]; 40 mg/kg p.o., dog): 5.4 h
Mean peak plasma concentration (Cmax) of intact prodrug, oral ([5]; 40 mg/kg p.o., dog): 10200 ng/mL
Mean plasma Cmax of PMEA following oral administration ([5]; 40 mg/kg p.o., dog): 240 ng/mL
Terminal t1/2 after p.o. dosing ([5]; 40 mg/kg p.o., dog): 1.0 h
Tmax of PMEA following oral administration ([5]; 40 mg/kg p.o., dog): 1.4 h
Tmax of intact prodrug, oral ([5]; 40 mg/kg p.o., dog): 0.8 h and 0.81 h
p.o. dose excreted in the urine as PMEA ([5]; 40 mg/kg p.o., dog): 1.7%
p.o. dose excreted in the urine as intact prodrug ([5]; 40 mg/kg p.o., dog): 40%
Cmax ([5]; 40 mg/kg p.o., dog, read-out: Mean peak plasma concentration (Cmax) of intact prodrug, oral): ~24 µM
Cmax ([5]; 40 mg/kg p.o., dog, read-out: Mean plasma Cmax of PMEA following oral administration): ~0.88 µM
% F (orally bioavailable) ([5]; beagle dog, conclusion): ~100%
Fold reduction of systemic PMEA exposure (dose-normalized plasma AUC) versus bis POM PMEA literature ([5]; dog): 18.8 fold
PMEA AUC (dose-normalized plasma) ([5]; dog, after Compound 4): 0.58
